Values after ≈ are worked out from the molar mass of the structure shown.
Legend:
Anatidae = settings: short-term; oral; feed; mortality
Apis mellifera = settings: acute; duration: 48 hours; oral; unspecified; mortality
Canidae = settings: chronic, duration: 1 years, oral, Dog Other
Colinus virginianus = settings: reproduction developmental
Coturnix japonica = settings: acute, oral, mortality
Daphnia magna = settings: chronic/long-term; duration: 21 days; reproduction
Oncorhynchus mykiss = settings: mortality
Phasianus sp. = settings: acute; oral; unspecified; mortality
Rattus norvegicus = settings: chronic; duration: 2 years; histopathology: nonneoplastic
Aphidius rhopalosiphi = assay: LR50; higher = less toxic; settings: not reported; mortality
Typhlodromus pyri = assay: LR50; higher = less toxic; settings: not reported; mortality

CC1OC(C)OC(C)OC(C)O1 (stereo not drawn) [2,4,6,8-Tetramethyl-1,3,5,7-tetroxocane]
LD50 (Anas platyrhynchos; acute, oral, unspecified, mortality): 196 mg/kg-day
NOEC (Anas platyrhynchos; reproductive): 175 mg/kg
LC50 (Anatidae): 3450 mg/kg
LD50 (Apis mellifera): > 87.5 µg/piece
NOAEL (Canidae; mortality): 10 mg/kg-day
NOAEL (Canidae; neurology): 30 mg/kg-day
NOEC (Colinus virginianus): 500 mg/kg-day
LC50 (Coturnix japonica; diet): 3460 mg/kg
LD50 (Coturnix japonica): 170 mg/kg-day
NOEC (Daphnia magna): 90 mg/L
LC50 (Oncorhynchus mykiss; acute, duration: 96 hours): 75 µg/mL (≈ 426 µM)
NOEC (Oncorhynchus mykiss; chronic/long-term, duration: 21 days): 37.5 mg/L
LD50 (Phasianus sp.): 262 mg/kg-day
NOAEL (Rattus norvegicus): 2 mg/kg-day
LC50 (Tagia sp.; acute, duration: 14 days, mortality): > 1000 mg/kg
NOEC (Tagia sp.; chronic/long-term, reproduction): 32 mg/kg
LR50 (Aphidius rhopalosiphi): > 350 g/ha
LR50 (Typhlodromus pyri): > 350 g/ha

From EPA's ToxValDB 9.5 (doi:10.2903/j.efsa.2010.1856)
